{"source": "ChEMBL document CHEMBL1201862", "about": "“PubChem BioAssay data set” (2004)", "key": {"[1]": {"experiment": "growth suppression of beta-catenin-knockout colon cells, dose response, cell-based, HCT116, human colon tumor (AID 1045);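 also: cells exposed to compound for 60 hours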", "assay_type": "functional"}, "[2]": {"experiment": "growth suppression of PTEN-null colon cells, dose response, cell-based, HCT116 PTEN knockout (AID 1047);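 also: cells exposed to compound for 60 hours before readout; potency for loss of cell viability measured by luminescence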", "assay_type": "functional"}, "[3]": {"biological_target": "T1, Rac GTPase-activating protein 1 (Homo sapiens, UniProt Q9H0H5)", "T1 sequence (Q9H0H5 whole entry)": "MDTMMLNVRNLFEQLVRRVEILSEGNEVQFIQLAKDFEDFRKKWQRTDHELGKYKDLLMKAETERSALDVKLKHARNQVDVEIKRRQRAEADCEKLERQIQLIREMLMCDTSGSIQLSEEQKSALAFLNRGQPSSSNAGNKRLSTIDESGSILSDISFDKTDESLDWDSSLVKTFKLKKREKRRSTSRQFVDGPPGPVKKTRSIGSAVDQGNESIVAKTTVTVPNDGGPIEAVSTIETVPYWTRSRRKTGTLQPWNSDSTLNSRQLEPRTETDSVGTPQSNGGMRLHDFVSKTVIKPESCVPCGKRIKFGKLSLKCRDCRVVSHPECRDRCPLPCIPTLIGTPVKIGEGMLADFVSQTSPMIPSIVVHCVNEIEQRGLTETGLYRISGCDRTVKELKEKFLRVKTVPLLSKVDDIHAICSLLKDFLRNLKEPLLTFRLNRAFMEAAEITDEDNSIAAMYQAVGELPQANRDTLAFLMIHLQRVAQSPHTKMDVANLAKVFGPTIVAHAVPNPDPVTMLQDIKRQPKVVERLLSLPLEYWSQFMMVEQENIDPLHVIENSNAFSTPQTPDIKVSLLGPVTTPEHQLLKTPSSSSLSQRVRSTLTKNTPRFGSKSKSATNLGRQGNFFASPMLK", "experiment": "MgcRacGAP GTPase-activating activity inhibitors, confirmation, biochemical, ADP Hunter fluorescence, primary and confirmatory (AID 624330)", "assay_type": "functional"}, "[4]": {"biological_target": "T2, Corticotropin-releasing factor receptor 2/Corticotropin-releasing factor-binding protein (Homo sapiens, UniProt P24387+Q13324)", "T2 sequence (Q13324 whole entry)": "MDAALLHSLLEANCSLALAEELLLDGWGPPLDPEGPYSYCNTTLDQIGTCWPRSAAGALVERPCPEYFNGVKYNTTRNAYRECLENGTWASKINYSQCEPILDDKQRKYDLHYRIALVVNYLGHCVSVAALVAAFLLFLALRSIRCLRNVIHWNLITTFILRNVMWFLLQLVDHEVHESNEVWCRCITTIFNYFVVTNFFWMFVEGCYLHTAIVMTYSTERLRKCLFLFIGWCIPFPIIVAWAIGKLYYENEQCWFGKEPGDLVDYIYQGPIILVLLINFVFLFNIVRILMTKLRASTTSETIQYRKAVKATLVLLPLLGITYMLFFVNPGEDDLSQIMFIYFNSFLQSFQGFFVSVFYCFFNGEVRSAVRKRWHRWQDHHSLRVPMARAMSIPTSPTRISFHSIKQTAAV", "T2 sequence (P24387 whole entry)": "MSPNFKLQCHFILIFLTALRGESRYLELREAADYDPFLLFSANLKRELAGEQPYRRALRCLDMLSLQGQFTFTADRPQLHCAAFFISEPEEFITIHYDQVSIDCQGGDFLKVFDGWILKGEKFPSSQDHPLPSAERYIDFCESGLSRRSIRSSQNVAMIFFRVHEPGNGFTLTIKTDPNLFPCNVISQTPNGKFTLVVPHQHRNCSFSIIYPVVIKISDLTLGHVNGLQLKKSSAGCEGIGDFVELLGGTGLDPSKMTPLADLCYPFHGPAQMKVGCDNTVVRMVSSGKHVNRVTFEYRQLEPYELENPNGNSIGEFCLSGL", "experiment": "activators of CRF receptor 2 with binding protein – uHTS hits, confirmation (AID 602473)", "assay_type": "functional", "conditions": "read-out: EC50_Mean"}, "[5]": {"biological_target": "T2, Corticotropin-releasing factor receptor 2/Corticotropin-releasing factor-binding protein", "experiment": "Dose Response confirmation of uHTS hits for small molecule antagonists of the CRF-binding protein and CRF-R2 receptor complex.", "assay_type": "functional", "conditions": "read-out: IC50_Mean"}, "[6]": {"biological_target": "T3, Zinc finger protein mex-5 (Caenorhabditis elegans, UniProt Q9XUB2)", "T3 sequence (Q9XUB2 whole entry)": "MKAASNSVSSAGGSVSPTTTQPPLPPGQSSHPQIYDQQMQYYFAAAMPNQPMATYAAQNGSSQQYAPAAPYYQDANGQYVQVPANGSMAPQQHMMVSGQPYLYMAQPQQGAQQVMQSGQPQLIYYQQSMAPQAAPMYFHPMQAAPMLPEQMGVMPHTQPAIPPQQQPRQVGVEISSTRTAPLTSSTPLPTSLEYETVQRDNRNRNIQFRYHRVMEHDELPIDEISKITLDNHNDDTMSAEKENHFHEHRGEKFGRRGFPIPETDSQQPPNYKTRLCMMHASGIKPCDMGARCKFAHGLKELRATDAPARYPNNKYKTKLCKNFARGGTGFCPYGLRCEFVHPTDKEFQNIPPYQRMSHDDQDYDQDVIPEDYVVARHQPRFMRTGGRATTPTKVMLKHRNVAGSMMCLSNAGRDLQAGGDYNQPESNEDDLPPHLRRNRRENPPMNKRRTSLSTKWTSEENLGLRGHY", "experiment": "MEX-5/TCR-2 RNA interaction inhibitors, dose response, biochemical, C. elegans, fluorescence polarization (AID 1960)"}, "[7]": {"biological_target": "T4, RNA-binding protein pos-1 (Caenorhabditis elegans, UniProt G5EF15)", "T4 sequence (G5EF15 whole entry)": "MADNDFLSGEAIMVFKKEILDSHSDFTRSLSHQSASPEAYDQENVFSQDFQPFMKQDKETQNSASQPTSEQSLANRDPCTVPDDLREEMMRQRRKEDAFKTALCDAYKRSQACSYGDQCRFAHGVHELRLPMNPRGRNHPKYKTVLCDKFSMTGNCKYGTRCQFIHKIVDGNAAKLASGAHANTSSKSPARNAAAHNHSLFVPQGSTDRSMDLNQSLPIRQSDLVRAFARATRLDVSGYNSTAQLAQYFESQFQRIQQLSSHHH", "experiment": "inhibitors of POS-1/mex-3 RNA binding, dose response, biochemical, fluorescence polarization (AID 1964);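 also: purified POS-1 fused to maltose binding protein made in E. coli; potency of compounds blocking POS-1 binding to fluorescent RNA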"}, "[8]": {"experiment": "inhibitors of intracellular T. cruzi replication, confirmation, NIH3T3 host cells, beta-gal luminescence (AID 2044);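 also: luminescent beta-galactosidase reporter signal from transgenic T. cruzi replicating inside host cells; inhibitors lower the luminescence signal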", "assay_type": "functional, cell-based"}, "[9]": {"experiment": "cytotoxicity toward NIH3T3 fibroblasts, dose response, counter-screen, cell-based, ATP luminescence, mouse fibroblasts (AID 2010);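 also: cells exposed to compound for about 90 hours before reading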", "assay_type": "functional"}, "[10]": {"biological_target": "T5, Cytochrome P450 1A2 (Homo sapiens, UniProt P05177)", "T5 sequence (P05177 whole entry)": "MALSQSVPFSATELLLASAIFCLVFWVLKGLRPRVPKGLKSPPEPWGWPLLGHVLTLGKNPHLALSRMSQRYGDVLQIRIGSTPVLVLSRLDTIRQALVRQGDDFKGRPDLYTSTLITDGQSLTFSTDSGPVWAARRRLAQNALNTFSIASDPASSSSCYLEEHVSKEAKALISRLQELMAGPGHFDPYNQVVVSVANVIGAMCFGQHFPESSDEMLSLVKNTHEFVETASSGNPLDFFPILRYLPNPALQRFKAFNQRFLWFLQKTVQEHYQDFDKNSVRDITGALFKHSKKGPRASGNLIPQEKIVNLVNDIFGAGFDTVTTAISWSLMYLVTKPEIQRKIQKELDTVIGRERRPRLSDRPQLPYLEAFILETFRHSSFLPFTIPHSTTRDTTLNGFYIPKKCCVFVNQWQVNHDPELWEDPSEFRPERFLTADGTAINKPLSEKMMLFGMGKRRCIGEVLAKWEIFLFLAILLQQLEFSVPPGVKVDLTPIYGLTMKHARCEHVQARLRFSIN"}, "[11]": {"biological_target": "Cytochrome P450 3A4 (Homo sapiens, UniProt P08684)", "sequence (P08684 whole entry)": "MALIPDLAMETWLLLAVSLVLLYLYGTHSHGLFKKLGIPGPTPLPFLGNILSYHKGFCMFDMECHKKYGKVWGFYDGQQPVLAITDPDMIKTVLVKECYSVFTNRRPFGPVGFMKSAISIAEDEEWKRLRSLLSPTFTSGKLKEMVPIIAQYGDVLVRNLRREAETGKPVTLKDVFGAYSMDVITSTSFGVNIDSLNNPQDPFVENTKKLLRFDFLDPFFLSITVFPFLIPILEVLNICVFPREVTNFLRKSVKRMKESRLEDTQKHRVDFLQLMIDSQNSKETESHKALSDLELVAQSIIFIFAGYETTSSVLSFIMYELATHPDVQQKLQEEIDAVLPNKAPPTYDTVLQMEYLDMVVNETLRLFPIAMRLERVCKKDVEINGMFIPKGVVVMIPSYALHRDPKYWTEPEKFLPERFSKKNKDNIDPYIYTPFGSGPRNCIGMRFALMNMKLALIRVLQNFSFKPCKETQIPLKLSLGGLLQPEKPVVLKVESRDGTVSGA"}, "[12]": {"biological_target": "Cytochrome P450 2C9 (Homo sapiens, UniProt P11712)", "sequence (P11712 whole entry)": "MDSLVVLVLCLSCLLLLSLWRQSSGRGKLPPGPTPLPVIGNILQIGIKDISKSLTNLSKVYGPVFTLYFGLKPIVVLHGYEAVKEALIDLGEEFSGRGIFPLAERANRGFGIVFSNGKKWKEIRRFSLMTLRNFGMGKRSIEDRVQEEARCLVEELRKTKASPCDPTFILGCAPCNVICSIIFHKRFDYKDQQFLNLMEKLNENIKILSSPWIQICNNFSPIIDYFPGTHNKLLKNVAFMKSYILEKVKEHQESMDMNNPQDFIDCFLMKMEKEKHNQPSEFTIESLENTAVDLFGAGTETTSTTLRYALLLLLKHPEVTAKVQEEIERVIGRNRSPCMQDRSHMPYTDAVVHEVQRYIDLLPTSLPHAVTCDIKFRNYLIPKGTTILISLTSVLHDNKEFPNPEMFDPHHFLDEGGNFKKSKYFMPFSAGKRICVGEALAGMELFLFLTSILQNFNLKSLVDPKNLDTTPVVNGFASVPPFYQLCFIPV"}, "[13]": {"tested_on": "H4", "experiment": "Luminescence Cell-Based Dose Response HTS to Identify Activators of 5'UTR Stem-Loop Driven Prion Protein mRNA Translation in H4 Neuroglioblastoma Cells. [Related pubchem assays: 1829 (Project Summary), 1814 (Primary HTS)]", "assay_type": "functional", "conditions": "Homo sapiens"}}, "note": "The source made the active and inactive calls.", "data": [{"smiles": "CCOC(=O)c1cccc(-n2c(-c3ccc(OC)cc3)nc3nc4ccccc4nc32)c1", "values": [{"measurement": "EC50", "setting": "[1]", "value": "13.5 µM (active)"}, {"measurement": "EC50", "setting": "[2]", "value": "15.3 µM (active)"}]}, {"smiles": "Nc1sc(-c2ccccc2)c(Cc2ccccc2)c1C(=O)O", "values": [{"measurement": "IC50", "setting": "[3]", "value": "67.6 µM (active)"}]}, {"smiles": "c1ccc(C(c2nnnn2Cc2cccs2)N2CCN(C3CCCC3)CC2)cc1", "note": "(stereo not given)", "values": [{"measurement": "EC50", "setting": "[4]", "value": "> 53 µM (inactive)"}, {"measurement": "IC50", "setting": "[5]", "value": "> 47.1 µM (inactive)"}]}, {"smiles": "CCOC(=O)C1Nc2ccc(C(F)(F)F)cc2C2C=CCC12", "note": "(stereo not given)", "values": [{"measurement": "EC50", "setting": "[6]", "value": "> 300 µM (not active)"}, {"measurement": "EC50", "setting": "[7]", "value": "> 300 µM (not active)"}]}, {"smiles": "CC(C)Cn1c(N)c(C(=O)CSc2ncnc3sc4c(c23)CCCC4)c(=O)n(C)c1=O", "values": [{"measurement": "EC50", "setting": "[1]", "value": "12.2 µM (active)"}, {"measurement": "EC50", "setting": "[2]", "value": "12.1 µM (active)"}]}, {"smiles": "COc1ccc(N2C3=C(CC4=C2CC(C)(C)CC4=O)C(=O)CC(C)(C)C3)cc1", "values": [{"measurement": "EC50", "setting": "[8]", "value": "0.484 µM (active)"}, {"measurement": "EC50", "setting": "[9]", "value": "9.07 µM (active)"}, {"measurement": "EC50", "setting": "[1]", "value": "8.4 µM (active)"}, {"measurement": "EC50", "setting": "[2]", "value": "9.52 µM (active)"}]}, {"smiles": "O=C(CSCc1ccccc1Br)NNC(=S)NCc1ccco1", "values": [{"measurement": "EC50", "setting": "[4]", "value": "> 53 µM (inactive)"}, {"measurement": "IC50", "setting": "[5]", "value": "> 47.1 µM (inactive)"}]}, {"smiles": "COc1ccc(-c2csc(-n3ncc(-c4cccs4)c3N)n2)cc1", "values": [{"measurement": "AC50", "setting": "[10]", "value": "0.355 µM (inconclusive)"}, {"measurement": "AC50", "setting": "[11]", "value": "8.91 µM (inconclusive)"}, {"measurement": "AC50", "setting": "[12]", "value": "0.0501 µM (inconclusive)"}]}, {"smiles": "Nc1nc(NC(=O)c2cccs2)nn1-c1ccccc1", "values": [{"measurement": "EC50", "setting": "[13]", "value": "> 120 µM (not active)"}]}, {"smiles": "Oc1ccccc1CNc1ccc2c(c1)OCCO2", "values": [{"measurement": "IC50", "setting": "[3]", "value": "94.9 µM (active)"}]}, {"smiles": "COc1ccc(-c2nc3cnc(OC)nc3n(CCc3ccccc3)c2=O)cc1", "values": [{"measurement": "AC50", "setting": "[10]", "value": "6.31 µM (inconclusive)"}, {"measurement": "AC50", "setting": "[11]", "value": "10 µM (inconclusive)"}, {"measurement": "AC50", "setting": "[12]", "value": "6.31 µM (inconclusive)"}]}, {"smiles": "CN(c1ccccc1)S(=O)(=O)c1ccc2c(c1)oc(=O)n2C", "values": [{"measurement": "EC50", "setting": "[4]", "value": "> 53 µM (inactive)"}, {"measurement": "IC50", "setting": "[5]", "value": "> 47.1 µM (inactive)"}]}, {"smiles": "N#CC1=C(N)C(C#N)(C#N)C(c2cccnc2)C2COCC=C12", "note": "(stereo not given)", "values": [{"measurement": "EC50", "setting": "[6]", "value": "> 300 µM (not active)"}, {"measurement": "EC50", "setting": "[7]", "value": "> 300 µM (not active)"}]}, {"smiles": "c1ccc(-c2nc(-c3ccccn3)nc(-c3ccccn3)n2)nc1", "values": [{"measurement": "EC50", "setting": "[6]", "value": "54.6 µM (active)"}, {"measurement": "EC50", "setting": "[7]", "value": "31.1 µM (active)"}]}, {"smiles": "CC(C(=O)NC1CCCCC1)N1CCN(C)CC1", "note": "(stereo not given)", "values": [{"measurement": "IC50", "setting": "[3]", "value": "93.7 µM (active)"}]}]}
